Here are results for two compounds from ChEMBL document CHEMBL5226375, “Synthesis and Comprehensive in Vivo Activity Profiling of Olean-12-en-28-ol, 3β-Pentacosanoate in Experimental Autoimmune Encephalomyelitis: A Natural Remyelinating and Anti-Inflammatory Agent” (J Nat Prod, 2023).

Assay [1] relates to Mus musculus. In words: Anti-inflammatory activity against MOG35-55-induced experimental autoimmune encephalomyelitis C57BL/6 mouse model assessed as reduction in EAE symptoms by measuring reduction in paralysis of hind limbs at 300 to 600 mg/kg/day, ig for 14 days starting from 12th day of immunization. It counts as functional, organism-based. The settings on record: dose 300-600 mg/kg/day, time 14.0 day.

The subject of assay [2] is Mus musculus. Kind of assay: Anti-inflammatory activity against MOG35-55-induced experimental autoimmune encephalomyelitis C57BL/6 mouse model assessed as reduction in CCL5 protein expression in brain at 300 to 600 mg/kg/day, ig for 14 days starting from 12th day of immunization by western blot analysis. It counts as functional, organism-based. To be noted: dose 300-600 mg/kg/day, time 14.0 day. (In western blotting, separated proteins are transferred to a membrane and probed.)

Assay [3] relates to Mus musculus. Kind of assay: Anti-inflammatory activity against MOG35-55-induced experimental autoimmune encephalomyelitis C57BL/6 mouse model assessed as reduction in EAE symptoms by measuring neurological regeneration and behavioral impotence at 600 mg/kg/day, ig for 14 days starting from 12th day of immunization. To be noted: time 14.0 day. It counts as functional, organism-based.

Assay [4] concerns Mus musculus. Kind of assay: Anti-inflammatory activity against MOG35-55-induced experimental autoimmune encephalomyelitis C57BL/6 mouse model assessed as reduction in serum Th1 cytokine level by measuring reduction in IFNG level at 600 mg/kg/day, ig for 14 days starting from 12th day of immunization by ELISA. It counts as functional, organism-based. The settings on record: time 14.0 day. (In general: In an ELISA, binding on a coated surface is turned into a signal by an enzyme label.)

The test system of assay [5] is Mus musculus. Kind of assay: Anti-inflammatory activity against MOG35-55-induced experimental autoimmune encephalomyelitis C57BL/6 mouse model assessed as increase in brain IL-10 level at 600 mg/kg/day, ig for 14 days starting from 12th day of immunization by ELISA. To be noted: time 14.0 day. It counts as functional, organism-based.
Assay [6] concerns Mus musculus. In words: Anti-inflammatory activity against MOG35-55-induced experimental autoimmune encephalomyelitis C57BL/6 mouse model assessed as reduction in serum monokines level by measuring reduction in IL-6 level at 600 mg/kg/day, ig for 14 days starting from 12th day of immunization by ELISA. To be noted: time 14.0 day. It counts as functional, organism-based.
Assay [7] deals with Mus musculus. In words: Anti-inflammatory activity against MOG35-55-induced experimental autoimmune encephalomyelitis C57BL/6 mouse model assessed as fold change in C1S gene expression in brain at 600 mg/kg/day, ig for 14 days starting from 12th day of immunization by RT-qPCR analysis relative to control. It counts as functional. To be noted: time 14 day. For orientation: In qPCR the cycle at which signal appears reflects the starting amount.

The test system of assay [8] is Mus musculus. Kind of assay: Anti-inflammatory activity against MOG35-55-induced experimental autoimmune encephalomyelitis C57BL/6 mouse model assessed as fold change in HIF1A gene expression in brain at 600 mg/kg/day, ig for 14 days starting from 12th day of immunization by RT-qPCR analysis relative to control. It counts as functional. The settings on record: time 14 day.

In assay [9] the test system is Mus musculus. Kind of assay: Anti-inflammatory activity against MOG35-55-induced experimental autoimmune encephalomyelitis C57BL/6 mouse model assessed as increase in brain IL-4 level at 600 mg/kg/day, ig for 14 days starting from 12th day of immunization by ELISA. It counts as functional, organism-based. To be noted: time 14.0 day.
Assay [10] relates to Mus musculus. In words: Anti-inflammatory activity against MOG35-55-induced experimental autoimmune encephalomyelitis C57BL/6 mouse model assessed as reduction in MMP9 protein expression in brain at 300 to 600 mg/kg/day, ig for 14 days starting from 12th day of immunization by western blot analysis relative to control. It counts as functional. To be noted: dose 300-600 mg/kg/day, time 14 day.

Assay [11] concerns Mus musculus. In words: Anti-inflammatory activity against MOG35-55-induced experimental autoimmune encephalomyelitis C57BL/6 mouse model assessed as fold change in PLP gene expression in brain at 300 mg/kg/day, ig for 14 days starting from 12th day of immunization by RT-qPCR analysis relative to control. It counts as functional. The settings on record: time 14 day.
Assay [12] relates to Mus musculus. In words: Anti-inflammatory activity against MOG35-55-induced experimental autoimmune encephalomyelitis C57BL/6 mouse model assessed as upregulation of PLP protein expression in brain at 0.15 to 0.3 mg/kg/day, ig for 14 days starting from 12th day of immunization by western blot analysis. It counts as functional, organism-based. To be noted: dose 0.15-0.3 mg/kg/day, time 14.0 day.

In assay [13] the test system is Mus musculus. Kind of assay: Anti-inflammatory activity against MOG35-55-induced experimental autoimmune encephalomyelitis C57BL/6 mouse model assessed as methylation of CpG sites of IL18 gene promoter in brain at […], ig for 14 days starting from 12th day of immunization by PCR analysis (reference value: 29.2 +/-8%). The settings on record: time 14 day. It counts as functional.

Assay [14] concerns Mus musculus. Kind of assay: Anti-inflammatory activity against MOG35-55-induced experimental autoimmune encephalomyelitis C57BL/6 mouse model assessed as methylation of CpG sites of IL13 gene promoter in brain at […], ig for 14 days starting from 12th day of immunization by PCR analysis (reference value: 57.3 +/-8%). It counts as functional. To be noted: time 14 day.
For assay [15], the system named is Mus musculus. In words: Anti-inflammatory activity against MOG35-55-induced experimental autoimmune encephalomyelitis C57BL/6 mouse model assessed as fold change in MAG gene expression in brain at 0.15 mg/kg/day, ig for 14 days starting from 12th day of immunization by RT-qPCR analysis relative to control. To be noted: time 14 day. It counts as functional.
For assay [16], the system named is Mus musculus. Kind of assay: Anti-inflammatory activity against MOG35-55-induced experimental autoimmune encephalomyelitis C57BL/6 mouse model assessed as reduction in serum monokines level by measuring reduction in IL-6 level at 0.3 mg/kg/day, ig for 14 days starting from 12th day of immunization by ELISA. It counts as functional, organism-based. The settings on record: time 14.0 day.

Assay [17] concerns Mus musculus. Kind of assay: Anti-inflammatory activity against MOG35-55-induced experimental autoimmune encephalomyelitis C57BL/6 mouse model assessed as fold change in YWHAH gene expression in brain at 0.3 mg/kg/day, ig for 14 days starting from 12th day of immunization by RT-qPCR analysis relative to control. It counts as functional. To be noted: time 14 day.
In assay [18] the test system is Mus musculus. Kind of assay: Anti-inflammatory activity against MOG35-55-induced experimental autoimmune encephalomyelitis C57BL/6 mouse model assessed as fold change in PLP gene expression in brain at 0.15 mg/kg/day, ig for 14 days starting from 12th day of immunization by RT-qPCR analysis relative to control. It counts as functional. The settings on record: time 14 day.

Assay [19] relates to Mus musculus. In words: Anti-inflammatory activity against MOG35-55-induced experimental autoimmune encephalomyelitis C57BL/6 mouse model assessed as reduction in serum chemokines level by measuring reduction in CCL5 level at 0.3 mg/kg/day, ig for 14 days starting from 12th day of immunization by ELISA. It counts as functional, organism-based. To be noted: time 14.0 day.
Assay [20] relates to Mus musculus. In words: Anti-inflammatory activity against MOG35-55-induced experimental autoimmune encephalomyelitis C57BL/6 mouse model assessed as fold change in MAG gene expression in brain at 0.3 mg/kg/day, ig for 14 days starting from 12th day of immunization by RT-qPCR analysis relative to control. It counts as functional. The settings on record: time 14 day.
Assay [21] deals with Mus musculus. Kind of assay: Anti-inflammatory activity against MOG35-55-induced experimental autoimmune encephalomyelitis C57BL/6 mouse model assessed as fold change in H2EB1 (HLA-DRB1) gene expression in brain at 0.15 mg/kg/day, ig for 14 days starting from 12th day of immunization by RT-qPCR analysis relative to control. It counts as functional. To be noted: time 14 day.

In assay [22] the test system is Mus musculus. In words: Anti-inflammatory activity against MOG35-55-induced experimental autoimmune encephalomyelitis C57BL/6 mouse model assessed as fold change in MMP9 gene expression in brain at 0.15 mg/kg/day, ig for 14 days starting from 12th day of immunization by RT-qPCR analysis relative to control. It counts as functional. The settings on record: time 14 day.

Assay [23] relates to Mus musculus. In words: Anti-inflammatory activity against MOG35-55-induced experimental autoimmune encephalomyelitis C57BL/6 mouse model assessed as fold change in CD4 gene expression in brain at 0.15 mg/kg/day, ig for 14 days starting from 12th day of immunization by RT-qPCR analysis relative to control. It counts as functional. The settings on record: time 14 day.

Active and inactive are the calls of the source. The rule behind the calls is not given here.

For `CCCCCCCCCCCCCCCCCCCCCCCCC(=O)O[C@H]1CC[C@]2(C)[C@H]3CC=C4[C@@H]5CC(C)(C)CC[C@]5(CO)CC[C@@]4(C)[C@]3(C)CC[C@H]2C1(C)C`, the outcome in the assay with Mus musculus [1], in the assay on Mus musculus [2], with Mus musculus [3], with Mus musculus [4], in the assay with Mus musculus [5] and in the assay on Mus musculus [6] was Active. Besides, the result with Mus musculus [9] was Active. The “fold change (FC)” value was determined as 1.98 in the assay on Mus musculus [7], 1.77 with Mus musculus [8], 2 in the assay on Mus musculus [10] and 1.9 with Mus musculus [11].

On to `CCCCCCCCc1ccc(CCC(N)(CO)CO)cc1` [FINGOLIMOD], for which the outcome with Mus musculus [12] was inactive. Also, the Activity in the assay on Mus musculus [13] came out at 29.5%; with Mus musculus [14] it was 33.1%. Also, the “fold change (FC)” value in the assay with Mus musculus [15] is -1.85; with Mus musculus [17] it was -1.26; in the assay with Mus musculus [18], 1.54; in the assay on Mus musculus [20] it was -3.16; with Mus musculus [21] it was 3.85; with Mus musculus [22] it was 2.43. Moreover, the “fold change (FC)” value in the assay with Mus musculus [23] amounted to 3.06. Besides, the result with Mus musculus [16] and in the assay on Mus musculus [19] was Active.
